Peptide text beside a SMILES is read from it.
What was measured:
[1] = tested on: pain threshold (tail-flick latency); assay: rat-tail flick method, intracerebroventricular injection; format: in vivo; details: for Mean Latency ± SEM, Drug / Mean % Change ± SEM: injected into lateral ventricle; for Mean Latency ± SEM, Drug / Mean % Change ± SEM / analgesic effect / pain threshold: rat; for Mean % Change ± SEM: drug minus baseline latency; for analgesic effect / pain threshold: injected into the lateral brain ventricle
Experimental: In this test method, which is a standard test for analgesia, a light beam is focused on the tip of the rat's tail, and the pain threshold of the animal is measured by the latency of the rat to remove his tail from the noxious heat source. When tested by the rat-tail flick method by intracerebroventricular injection, according to the procedure of Belluzzi et al., Nature, 260, 625 (1976), the polypeptides of this invention produced the effects set forth in Table I.
*All drugs were dissolved in […]. of Ringer's solution and injected int
the lateral ventricle through permanently-indwelling cannulae.

opiate receptors = assay: binding to opiate receptors in vitro, displacement of 3H-naloxone in rat brain homogenates
analgesia = details: injection in the brain ventricle in rats; fully reversible by naloxone; cited from earlier work

Row | Structure (SMILES) | Mean Latency ± SEM, Drug ([1]; dose 10 μg) | Mean % Change ± SEM ([1]; dose 10 μg) | Mean Latency ± SEM, Drug ([1]; dose 100 μg) | Mean % Change ± SEM ([1]; dose 100 μg) | Mean Latency ± SEM, Drug ([1]; dose 200 μg) | Mean % Change ± SEM ([1]; dose 200 μg) | analgesic activity at low dose ([1]; dose as low as 10 μg) | duration of analgesic effect ([1]; dose as low as 10 μg) | analgesic effect / pain threshold ([1]; listed as polypeptide of Formula I) | analgesic effect / pain threshold ([1]; listed as polypeptide of this invention) | binding to opiate receptors in vitro (opiate receptors; in vitro) | displacing 3H-naloxone from binding sites (opiate receptors; rat brain homogenates) | analgesia (analgesia)
1 | CC(C)C[C@H](NC(=O)[C@H](Cc1ccccc1)NC(=O)CNC(=O)CNC(=O)[C@@H](N)Cc1ccc(O)cc1)C(=O)N[C@H](C(=O)N[C@@H](CO)C(=O)N[C@@H](CCC(=O)O)C(=O)N[C@@H](CCCCN)C(=O)N[C@@H](CO)C(=O)N[C@@H](CCC(N)=O)C(=O)N[C@H](C(=O)N1CCC[C@H]1C(=O)N[C@@H](CC(C)C)C(=O)N[C@H](C(=O)N[C@H](C(=O)O)[C@@H](C)O)C(C)C)[C@@H](C)O)[C@@H](C)O [β-LPH 61-76 (Leu^65), L-Tyrosyl-glycyl-glycyl-L-phenylalanyl-L-leucyl-L-threonyl-L-seryl-L-glutamyl-L-lysyl-L-seryl-L-glutaminyl-L-threonyl-L-prolyl-L-leucyl-L-valyl-L-threonine] (H-YGGFLTSEKSQTPLVT-OH) | 4.33 ± 0.05 | 34.32 ± 8.75% | 6.26 ± 0.96 | 86.02 ± 30.79% | 4.16 | 3.04% | active | > 2 h | exerts an analgesic effect | produced an increase in pain threshold | weak binding | capable of displacing 3H-naloxone | –
2 | CSCC[C@H](NC(=O)[C@H](Cc1ccccc1)NC(=O)CNC(=O)CNC(=O)[C@@H](N)Cc1ccc(O)cc1)C(=O)O [Methionine-Enkaphalin, H-Tyr-Gly-Gly-Phe-Met-OH] | – | – | – | – | – | – | – | – | – | – | – | – | induce a profound analgesia
3 | CC(C)C[C@H](NC(=O)[C@H](Cc1ccccc1)NC(=O)CNC(=O)CNC(=O)[C@@H](N)Cc1ccc(O)cc1)C(=O)O [Leucine-Enkephalin, H-Tyr-Gly-Gly-Phe-Leu-OH, reference compound] | – | – | 5.11 ± 0.34 | 31.7 ± 11.5% | – | – | – | – | – | – | – | – | induce a profound analgesia
